Measured values as given in US12077503B2, “Substituted cyclic amides and their use as herbicides” (FMC CORPORATION, priority 2015, dated 2024).

Key:
Assay type in all cases: in vivo
[1] = tested on: barnyardgrass (Echinochloa crus-galli); assay: Test A postemergence; details: postemergence; for Barnyardgrass plant response rating: 125 g ai/ha, visual injury rating on 0 to 100 scale (0 no effect, 100 complete control), approx. 10 d; for Plant response rating, Barnyardgrass: 500 g ai/ha, 0 to 100 scale, 0 no effect, 100 complete control
How it was run: (§1)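 Seeded soil received test chemicals as a preemergence directed spray, and seedlings at one to two leaves, 2–10 cm tall, received them postemergence, in a non-phytotoxic, surfactant-containing solvent mixture. Pots were held in a greenhouse for approximately 10 d, then rated for injury from 0, no effect, to 100, complete control.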

[2] = tested on: Galium (catchweed bedstraw, Galium aparine); assay: Test A postemergence; details: postemergence; for Galium plant response rating: 125 g ai/ha, visual injury rating on 0 to 100 scale (0 no effect, 100 complete control), approx. 10 d; for Plant response rating, Galium: 500 g ai/ha, 0 to 100 scale, 0 no effect, 100 complete control
How it was run: as §1

[3] = tested on: pigweed (Amaranthus retroflexus); assay: Test A postemergence; details: postemergence; for Pigweed plant response rating: 125 g ai/ha, visual injury rating on 0 to 100 scale (0 no effect, 100 complete control), approx. 10 d; for Plant response rating, Pigweed: 500 g ai/ha, 0 to 100 scale, 0 no effect, 100 complete control
How it was run: as §1

[4] = tested on: Kochia (Kochia scoparia); assay: Test A postemergence; details: postemergence; for Kochia plant response rating: 125 g ai/ha, visual injury rating on 0 to 100 scale (0 no effect, 100 complete control), approx. 10 d; for Plant response rating, Kochia: 500 g ai/ha, 0 to 100 scale, 0 no effect, 100 complete control
How it was run: as §1

[5] = tested on: wheat (Triticum aestivum); assay: Test A postemergence; details: postemergence; for Wheat plant response rating: 125 g ai/ha, visual injury rating on 0 to 100 scale (0 no effect, 100 complete control), approx. 10 d; for Plant response rating, Wheat: 500 g ai/ha, 0 to 100 scale, 0 no effect, 100 complete control
How it was run: as §1

[6] = tested on: ragweed (common ragweed, Ambrosia elatior); assay: Test A postemergence; details: postemergence; for Ragweed plant response rating: 125 g ai/ha, visual injury rating on 0 to 100 scale (0 no effect, 100 complete control), approx. 10 d; for Plant response rating, Ragweed: 500 g ai/ha, 0 to 100 scale, 0 no effect, 100 complete control
How it was run: as §1

[7] = tested on: ryegrass, Italian (Italian ryegrass, Lolium multiflorum); assay: Test A postemergence; details: postemergence; for Ryegrass, Italian plant response rating: 125 g ai/ha, visual injury rating on 0 to 100 scale (0 no effect, 100 complete control), approx. 10 d; for Plant response rating, Ryegrass, Italian: 500 g ai/ha, 0 to 100 scale, 0 no effect, 100 complete control
How it was run: as §1

[8] = tested on: corn (Zea mays); assay: Test A postemergence; details: postemergence; for Corn plant response rating: 125 g ai/ha, visual injury rating on 0 to 100 scale (0 no effect, 100 complete control), approx. 10 d; for Plant response rating, Corn: 500 g ai/ha, 0 to 100 scale, 0 no effect, 100 complete control
How it was run: as §1

[9] = tested on: giant foxtail (Setaria faberii); assay: Test A postemergence; details: postemergence; for Foxtail, Giant plant response rating: 125 g ai/ha, visual injury rating on 0 to 100 scale (0 no effect, 100 complete control), approx. 10 d; for Plant response rating, Foxtail, Giant: 500 g ai/ha, 0 to 100 scale, 0 no effect, 100 complete control
How it was run: as §1

[10] = tested on: blackgrass (Alopecurus myosuroides); assay: Test A postemergence; details: postemergence; for Blackgrass plant response rating: 125 g ai/ha, visual injury rating on 0 to 100 scale (0 no effect, 100 complete control), approx. 10 d; for Plant response rating, Blackgrass: 500 g ai/ha, 0 to 100 scale, 0 no effect, 100 complete control
How it was run: as §1

[11] = tested on: barnyardgrass (Echinochloa crus-galli); assay: Test B flooded paddy test; details: Flood, 500 g ai/ha; 0 to 100 scale where 0 is no effect and 100 is complete control; 13 to 15 d
How it was run: (§2)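 Greenhouse paddy pots with 2-leaf stage plants received compound by direct addition to floodwater 3 cm deep, kept at that level. Scored visually at 13–15 d versus controls (0 no effect; 100 complete control).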

[12] = tested on: ducksalad (Heteranthera limosa); assay: Test B flooded paddy test; details: Flood, 500 g ai/ha; 0 to 100 scale where 0 is no effect and 100 is complete control; 13 to 15 d
How it was run: as §2

[13] = tested on: rice (Oryra sativa); assay: Test B flooded paddy test; details: Flood, 500 g ai/ha; 0 to 100 scale where 0 is no effect and 100 is complete control; 13 to 15 d
How it was run: as §2

[14] = tested on: sedge, umbrella (small-flower umbrella sedge, Cyperus difformis); assay: Test B flooded paddy test; details: Flood, 500 g ai/ha; 0 to 100 scale where 0 is no effect and 100 is complete control; 13 to 15 d
How it was run: as §2

[15] = tested on: barnyardgrass (Echinochloa crus-galli); assay: Test A preemergence; details: for Plant response rating, Barnyardgrass: 125 g ai/ha, preemergence, 0 to 100 scale (0 no effect, 100 complete control); for Barnyardgrass plant response rating (0 to 100 scale, 0 is no effect, 100 is complete control): Preemergence, 500 g ai/ha, visual injury approx. 10 d
How it was run: as §1

[16] = tested on: pigweed (Amaranthus retroflexus); assay: Test A preemergence; details: for Plant response rating, Pigweed: 125 g ai/ha, preemergence, 0 to 100 scale (0 no effect, 100 complete control); for Pigweed plant response rating (0 to 100 scale, 0 is no effect, 100 is complete control): Preemergence, 500 g ai/ha, visual injury approx. 10 d
[17] = tested on: Kochia (Kochia scoparia); assay: Test A preemergence; details: for Plant response rating, Kochia: 125 g ai/ha, preemergence, 0 to 100 scale (0 no effect, 100 complete control); for Kochia plant response rating (0 to 100 scale, 0 is no effect, 100 is complete control): Preemergence, 500 g ai/ha, visual injury approx. 10 d
How it was run: as §1

[18] = tested on: ragweed (common ragweed, Ambrosia elatior); assay: Test A preemergence; details: for Plant response rating, Ragweed: 125 g ai/ha, preemergence, 0 to 100 scale (0 no effect, 100 complete control); for Ragweed plant response rating (0 to 100 scale, 0 is no effect, 100 is complete control): Preemergence, 500 g ai/ha, visual injury approx. 10 d
How it was run: as §1

[19] = tested on: ryegrass, Italian (Italian ryegrass, Lolium multiflorum); assay: Test A preemergence; details: for Plant response rating, Ryegrass, Italian: 125 g ai/ha, preemergence, 0 to 100 scale (0 no effect, 100 complete control); for Ryegrass, Italian plant response rating (0 to 100 scale, 0 is no effect, 100 is complete control): Preemergence, 500 g ai/ha, visual injury approx. 10 d
How it was run: as §1

[20] = tested on: giant foxtail (Setaria faberii); assay: Test A preemergence; details: for Plant response rating, Foxtail, Giant: 125 g ai/ha, preemergence, 0 to 100 scale (0 no effect, 100 complete control); for Foxtail, Giant plant response rating (0 to 100 scale, 0 is no effect, 100 is complete control): Preemergence, 500 g ai/ha, visual injury approx. 10 d
How it was run: as §1

SMILES	Barnyardgrass plant response rating [1]	Plant response rating, Barnyardgrass [1]	Galium plant response rating [2]	Plant response rating, Galium [2]	Pigweed plant response rating [3]	Plant response rating, Pigweed [3]	Kochia plant response rating [4]	Plant response rating, Kochia [4]	Wheat plant response rating [5]	Plant response rating, Wheat [5]	Ragweed plant response rating [6]	Plant response rating, Ragweed [6]	Ryegrass, Italian plant response rating [7]	Plant response rating, Ryegrass, Italian [7]	Corn plant response rating [8]	Plant response rating, Corn [8]	Foxtail, Giant plant response rating [9]	Plant response rating, Foxtail, Giant [9]	Blackgrass plant response rating [10]	Plant response rating, Blackgrass [10]	further results
Cc1cc(NC(=O)C2C(=O)NCC2c2ccc(F)c(F)c2)ccc1F (stereo not drawn) [Compound 412]	0	0	0	0	0	0	0	0	0	0	0	0	0	0	0	0	0	0	0	0	Plant response rating, Barnyardgrass [11]: 0; Plant response rating, Ducksalad [12]: 30; Plant response rating, Rice [13]: 0; Plant response rating, Sedge, Umbrella [14]: 0; Plant response rating, Barnyardgrass [15]: 40; Barnyardgrass plant response rating (0 to 100 scale, 0 is no effect, 100 is complete control) [15]: 70; Plant response rating, Pigweed [16]: 0; Pigweed plant response rating (0 to 100 scale, 0 is no effect, 100 is complete control) [16]: 0; Plant response rating, Kochia [17]: 0; Kochia plant response rating (0 to 100 scale, 0 is no effect, 100 is complete control) [17]: 0; Plant response rating, Ragweed [18]: 0; Ragweed plant response rating (0 to 100 scale, 0 is no effect, 100 is complete control) [18]: 0; Plant response rating, Ryegrass, Italian [19]: 0; Ryegrass, Italian plant response rating (0 to 100 scale, 0 is no effect, 100 is complete control) [19]: 0; Plant response rating, Foxtail, Giant [20]: 60; Foxtail, Giant plant response rating (0 to 100 scale, 0 is no effect, 100 is complete control) [20]: 70
COc1ccc(NC(=O)C2C(=O)NCC2c2ccc(F)c(F)c2)cc1F (stereo not drawn) [Compound 415]	0	0	0	0	0	0	0	0	0	0	0	0	0	0	0	0	0	0	0	0	Plant response rating, Barnyardgrass [11]: 0; Plant response rating, Ducksalad [12]: 0; Plant response rating, Rice [13]: 0; Plant response rating, Sedge, Umbrella [14]: 0; Plant response rating, Barnyardgrass [15]: 0; Barnyardgrass plant response rating (0 to 100 scale, 0 is no effect, 100 is complete control) [15]: 0; Plant response rating, Pigweed [16]: 0; Pigweed plant response rating (0 to 100 scale, 0 is no effect, 100 is complete control) [16]: 0; Plant response rating, Kochia [17]: 0; Kochia plant response rating (0 to 100 scale, 0 is no effect, 100 is complete control) [17]: 0; Plant response rating, Ragweed [18]: 0; Ragweed plant response rating (0 to 100 scale, 0 is no effect, 100 is complete control) [18]: 0; Plant response rating, Ryegrass, Italian [19]: 0; Ryegrass, Italian plant response rating (0 to 100 scale, 0 is no effect, 100 is complete control) [19]: 0; Plant response rating, Foxtail, Giant [20]: 0; Foxtail, Giant plant response rating (0 to 100 scale, 0 is no effect, 100 is complete control) [20]: 0
